{
  "source": "patent US11878013B2",
  "about": "“Isoquinoline derivative, preparing method thereof, and pharmaceutical composition for preventing or treating autophagy related diseases containing the same as an active ingredient” (Korea Research Institute of Chemical Technology, priority 2021, dated 2024)",
  "key": {"[1]": {"test_system": "zebrafish", "assay": "Fatty liver inhibitory effect in tamoxifen-treated zebrafish juvenile fish (LipidGreen2 staining)", "format": "in vivo", "experimental": "In order to evaluate the inhibitory efficacy of the novel isoquinoline derivative of the present invention on fatty liver, an experiment was performed as follows using LipidGreen2 staining reagent capable of staining lipid droplets.\nParticularly, the zebrafish used in this Experimental Example were juvenile fish 5 days after fertilization. Healthy juvenile fish were placed in a 24-well plate (10/well), and 1 ml of egg water was added to each well of the plate. As a negative control that could not regulate fatty liver, DMSO diluted at 0.4% was exposed to juvenile fish, and tamoxifen (Sigma-Aldrich, T5648) diluted at 5 μM was exposed to juvenile fish to control […] fatty liver. In order to investigate the fatty liver inhibitory efficacy of the compound of Example 1 of the present invention, the compound (0.5 μM, 1 μM and 5 μM) was mixed with 5 μM tamoxifen and exposed to juvenile fish (final volume of each well: 2 ml). The 24-well plate containing the compound was wrapped in foil to block light, and then incubated in a 28° C. incubator for 22 hours. The plate was washed with egg water 3 times for 5 minutes to remove the compound from each well. For fat-specific staining, LipidGreen2 diluted at 5 μM was exposed to juvenile fish for 30 minutes, and then washed 3 times with egg water for 5 minutes. To evaluate the fatty liver of zebrafish juvenile fish, the developing embryo was anesthetized with Tricaine (4 g/L), and then photographed on 3% methyl cellulose. As the equipment for photographing the developing embryo, a LEICA MZ10F fluorescence microscope, a LEICA DFC425 camera, and Leica Application Suite software (v4.5) were used. For the fluorescence wavelength, a GFP Plants filter set (Excitation 470/40 nm, Emission 525/50 nm) was used. To quantify the liver area and the degree of fat staining of juvenile fish on the image, the area and the fluorescence intensity of the liver part of each image were quantified using ImageJ 1.50i software (National Institutes of Health, USA) and converted into heatmap images."}, "[2]": {"test_system": "VERO, HFL-1, L929, NIH 3T3, CHO-K1 and HMV-II cell lines", "assay": "Non-selective general cytotoxicity test", "format": "cell-based", "conditions": "all cell lines, 24 hours", "experimental": "In this experiment, the cell lines derived from different species, VERO (African green monkey kidney cell line), HFL-1 (human embryonic lung cell line), L929 (mouse fibroblast cell line), NIH 3T3 (mouse embryonic fibroblast cell line), CHO-K1 (Chinese hamster ovary cell line) and HMV-II (human malignant melanoma cell line), were used.\nParticularly, VERO, HFL-1, L929 and NIH 3T3 cell lines were cultured in DMEM, CHO-K1 was cultured in RPMI1640 medium, and HMV-II was cultured in DME/F-12 medium. 10% FBS (Fetal Bovine Serum) and 100 μg/mL of antibiotics were added to each medium. The cells were acclimatized and cultured in a humidified 37° C. 5% CO2 incubator, washed with PBS (phosphate buffer solution) at the time of growth that occupies 70-80% of the culture dish every 2-3 days, and then subcultured by treating with Trypsin-EDTA (Gibco, USA).\nThe cells used in this Experimental Example were aliquoted into a 96-well culture plate at the density of 15,000-25,000 cells/well, and then acclimatized and cultured in a humidified 37° C. […] The cell viability was measured according to the standard method using a Cyto XTM cell viability assay kit ([…]). […] 5% CO2 incubator, followed by measuring the absorbance at 450 nm. The survival rate was measured by calculating the ratio of the absorbance changed compared to the absorbance measured in the group treated with DMSO alone."}, "[3]": {"test_system": "artificial corneal tissue", "assay": "Ocular toxicity test on artificial cornea (MTT)", "format": "cell-based", "conditions": "up to 50 μM, the maximum concentration", "experimental": "In order to evaluate the ocular toxicity that may be induced upon ocular exposure of the compound of Example 1 of the present invention, the following experiment was performed using the cultured artificial cornea.\nThe artificial corneal tissue cultured in agarose medium was transferred to a 12-well cell culture plate, to which culture medium was added, followed by culture in a humidified 37° C. 5% CO2 incubator for one day. The medium on the artificial cornea culture surface was eliminated, and 30 μl of the compound of Example 1 of the present invention diluted with PBS was evenly applied to the cornea surface, followed by incubation at room temperature for 30 minutes. The cell surface was washed twice with 10 ml of PBS, and a fresh culture medium was added, followed by incubation in a humidified 37° C. 5% CO2 incubator for 30 minutes. In order to measure the viability of the cornea, the artificial cornea was transferred to a 12-well plate containing 2 ml of MTT solution (1 mg/ml), followed by culture for 3 hours. The stained artificial corneal tissue was taken and transferred to a tube containing 1.5 ml of isopropanol, and then incubated with shaking to decolorize. The solution was centrifuged at 13,000 rpm for 5 minutes, 100 μl of the supernatant was transferred to each well of a 96-well plate, and absorbance was measured at 570 nm."}, "[4]": {"test_system": "artificial skin tissue", "assay": "Skin toxicity test on artificial skin (MTT)", "format": "cell-based", "experimental": "In order to evaluate the skin toxicity that may be induced upon skin contact of the compound of Example 1 of the present invention, the following experiment was performed using the artificial skin prepared with a structure similar to the skin of a living body.\nParticularly, the experiment was performed according to OECD Guideline for the Testing of Chemicals No. 439, OECD (2010) and the method recommended by the manufacturer (Tegoscience).\nFirst, the artificial skin cultured in agarose medium was transferred to a 12-well cell culture plate, to which culture medium was added, followed by culture in a humidified 37° C. 5% CO2 incubator for one day. The medium on the artificial skin culture surface was eliminated, and 90 μl of the compound of Example 1 of the present invention diluted with PBS was evenly applied to the skin surface, followed by incubation at room temperature for 15 minutes. The cell surface was washed twice with 10 ml of PBS, and a fresh culture medium was added, followed by incubation in a humidified 37° C. 5% CO2 incubator for 42 hours. In order to measure the viability of the skin, the artificial skin was transferred to a 12-well plate containing 2 ml of MTT solution (0.3 mg/ml), followed by culture for 3 hours. The stained artificial skin tissue was taken and transferred to a tube containing 500 μl of 0.04 N-isopropanol, and then incubated with shaking for 4 hours to decolorize. The solution was centrifuged at 13,000 rpm for 5 minutes, 100 μl of the supernatant was transferred to each well of a 96-well plate, and absorbance was measured at 570 nm."}},
  "data": [
    {"smiles": "[O-][S+](c1ccc(F)cc1)c1nccc2ccccc12", "note": "(centres unmarked) [Example 1, 1-((4-Fluorophenyl)Sulfinyl)Isoquinoline]", "values": [
      {"measurement": "fatty liver (LipidGreen2 fat staining)", "setting": "[1]; 0.5, 1 and 5 μM mixed with 5 μM tamoxifen, 22 hours, juvenile fish 5 days after fertilization", "value": "restored to the normal level"},
      {"measurement": "liver area", "setting": "[1]; compound mixed with 5 μM tamoxifen, 22 hours (FIG. 8 top)", "value": "maintained at the liver area level of normal juvenile fish"},
      {"measurement": "fluorescence intensity of liver (LipidGreen2)", "setting": "[1]; compound mixed with 5 μM tamoxifen, compared to tamoxifen group (FIG. 8 bottom)", "value": "decreased to the normal level"},
      {"measurement": "cytotoxicity", "setting": "[2]; maximum test concentration of 100 μM", "value": "less than 50%"},
      {"measurement": "toxicity (cell viability)", "setting": "[2]; up to 10 μM", "value": "no significant toxicity"},
      {"measurement": "survival rate of artificial cornea", "setting": "[3]", "value": "no significant decrease of the survival rate"},
      {"measurement": "survival rate of artificial skin", "setting": "[4]; 50 μM, the maximum concentration", "value": "slight decrease of the survival rate"},
      {"measurement": "survival rate of artificial skin", "setting": "[4]; up to 20 μM", "value": "no significant decrease of the survival rate"}
    ]}
  ]
}
